# According to EP0562575B1, “N-substituted-3-(substituted hydrazino)-benzenesulfonamide derivative, preparation process thereof, and herbicidal compositions” (KUREHA KAGAKU KOGYO KABUSHIKI KAISHA, priority 1992, dated 1993):
# Read-outs that look alike come from different tables or passages of the source.
# Experiments:
# Format in all cases: in vivo
# [1] = test system: Amaranthus retroflexus; assay: Germination test of seeds (Petri dish); settings: A.r., seeds in Petri dish, 28 °C, 14 days
# Protocol: (§1) Two sheets of filter paper were placed in a superposed relation in each of Petri dishes having a diameter of 9 cm. Water suspensions of each test compound (concentrations of the active ingredient: 0.25 ppm and 2.5 ppm) were separately poured in an amount of 6ml per dish into the Petri dishes. Seeds of Amaranthus retroflexus, (Redroot pigweed), Bidens pilosa (Common blackjack), Matricaria chamomilla (Wild chamomile), Solanum nigrum (Black nightshade), Echinochloa crus-galli(Barnyard grass), Cyperus iria (Rice flatsedge) and Setaria viridis (Green foxtail) were placed at a rate of 10 seeds per dish in the Petri dishes. They were thereafter allowed to germinate in a constant-temperature chamber at 28 °C. Fourteen days later after placement in the Petri dishes, the degrees of germination and growth inhibition were observed visually. The observation results were ranked in accordance with the below-described 6-stage system.
# [2] = test system: Bidens pilosa; assay: Germination test of seeds (Petri dish); settings: B.p., seeds in Petri dish, 28 °C, 14 days
# Protocol: as §1
# [3] = test system: Cyperus iria; assay: Germination test of seeds (Petri dish); settings: C.i., seeds in Petri dish, 28 °C, 14 days
# Protocol: as §1
# [4] = test system: Echinochloa crus-galli; assay: Germination test of seeds (Petri dish); settings: E.c., seeds in Petri dish, 28 °C, 14 days
# Protocol: as §1
# [5] = test system: Matricaria chamomilla; assay: Germination test of seeds (Petri dish); settings: M.c., seeds in Petri dish, 28 °C, 14 days
# Protocol: as §1
# [6] = test system: Setaria viridis; assay: Germination test of seeds (Petri dish); settings: S.v., seeds in Petri dish, 28 °C, 14 days
# Protocol: as §1
# [7] = test system: Solanum nigrum; assay: Germination test of seeds (Petri dish); settings: S.n., seeds in Petri dish, 28 °C, 14 days
# Protocol: as §1
# [8] = test system: Abutilon theophrasti; assay: Test on herbicidal activity by foliar application; settings: A.t; 50 g/ha foliar spray, 2 - 4 leaf stage, 14 days
# Description: (§2) Herbicidal solutions of each test compound, which had been prepared by dissolving at predetermined concentrations such as wettable powder of the test compound as that described in the above formulation example, and sprayed at dosages of 5 g/ha and 50 g/ha over foliar parts of Amaranthus retroflexus, (Redroot pigweed), Bidens pilosa (Common blackjack), Sinapis arvensis (Wild mustard), Stellaria media (Common chickweed), Cassia obtusifolia (Sicklepod), Solanum nigrum (Black nightshade), Abutilon theophrasti (Velvetleaf), Convolvulus arvensis (Field bindweed), Matricaria chamomilla (Wild chamomile), Setaria viridis (Green foxtail), Echinochloa frumentaceum (Barnyard grass), Avena fatua (Wild oat), and Digitaria adscendens (Henry crabgrass) which had been allowed to grow individually to 2 - 4 leaf stage in pots. Fourteen days later after spraying of the test compound, its herbicidal acrivity was evaluated in accordance with the below-described system.
# (§3) 0: no effects 1: less than 30% of total kill 2: 31 - 50% of total kill 3: 51 - 70% of total kill 4: 71 - 90% of total kill 5: 91 - 100% of total kill.
# [9] = test system: Amaranthus retroflexus; assay: Test on herbicidal activity by foliar application; settings: A.r; 50 g/ha foliar spray, 2 - 4 leaf stage, 14 days
# Description: as §2, §3
# [10] = test system: Avena fatua; assay: Test on herbicidal activity by foliar application; settings: A.f.; 50 g/ha foliar spray, 2 - 4 leaf stage, 14 days
# Description: as §2, §3
# [11] = test system: Bidens pilosa; assay: Test on herbicidal activity by foliar application; settings: B.p; 50 g/ha foliar spray, 2 - 4 leaf stage, 14 days
# Description: as §2, §3
# [12] = test system: Cassia obtusifolia; assay: Test on herbicidal activity by foliar application; settings: C.o.; 50 g/ha foliar spray, 2 - 4 leaf stage, 14 days
# Description: as §2, §3
# [13] = test system: Convolvulus arvensis; assay: Test on herbicidal activity by foliar application; settings: C.a.; 50 g/ha foliar spray, 2 - 4 leaf stage, 14 days
# Description: as §2, §3
# [14] = test system: Digitaria adscendens; assay: Test on herbicidal activity by foliar application; settings: D.a.; 50 g/ha foliar spray, 2 - 4 leaf stage, 14 days
# Description: as §2, §3
# [15] = test system: Echinochloa frumentaceum; assay: Test on herbicidal activity by foliar application; settings: E.f.; 50 g/ha foliar spray, 2 - 4 leaf stage, 14 days
# Description: as §2, §3
# [16] = test system: Matricaria chamomilla; assay: Test on herbicidal activity by foliar application; settings: M.c; 50 g/ha foliar spray, 2 - 4 leaf stage, 14 days
# Description: as §2, §3
# [17] = test system: Setaria viridis; assay: Test on herbicidal activity by foliar application; settings: S.v.; 50 g/ha foliar spray, 2 - 4 leaf stage, 14 days
# Description: as §2, §3
# [18] = test system: Sinapis arvensis; assay: Test on herbicidal activity by foliar application; settings: S.a.; 50 g/ha foliar spray, 2 - 4 leaf stage, 14 days
# Description: as §2, §3
# [19] = test system: Solanum nigrum; assay: Test on herbicidal activity by foliar application; settings: S.n; 50 g/ha foliar spray, 2 - 4 leaf stage, 14 days
# Description: as §2, §3
# [20] = test system: Stellaria media; assay: Test on herbicidal activity by foliar application; settings: S.m.; 50 g/ha foliar spray, 2 - 4 leaf stage, 14 days
# Description: as §2, §3
# [21] = test system: Galium aparine; assay: Test for selective herbicidal effect in post-emergence by treatment of stalks and leaves; settings: 1 - to 2 - leaf stage, 21 days
# Protocol: (§4) Wheat and the weed were reared from seeds in the planters in a glasshouse. When the young plants had reached the 1 - to 2 - leaf stage, the wettable powders prepared in the same manner as Preparation Example 1 described above were diluted with water to a prescribed concentration and sprayed uniformly to the stalks arid leaves of the plants and on the soil surface in the planters by a spray gun so that the acrive ingredient would be applied at a rate of 5 g/ha and 50 g/ha. Then the planters were kept in the glasshouse. Twenty-one days after said treatment, the herbicidal effect of the compositions on the weeds and phytotoxicity of the crops were observed and evaluated according to the following ratings.
# [22] = test system: Wheat; set-up: key: 0: no inhibition; less than 31%; 2: 31 - 50%; 3: 51 - 70%; 4: 71 - 90%; 5: 91 - 100%; settings: 1 - to 2 - leaf stage, 21 days
# Protocol: as §4
structure (smiles),measurement,setting,value
CC=NNc1ccc(C(=O)OC)c(S(=O)(=O)NC(=O)Nc2nc(OC)nc(OC)n2)c1 [Compound I-1],Growth inhibition rate,[1]; 0.25 ppm,3 (51 - 70%)
same,Growth inhibition rate,[1]; 2.5 ppm,5 (91 - 100%)
same,Growth inhibition rate,[2]; 0.25 ppm,3 (51 - 70%)
same,Growth inhibition rate,[2]; 2.5 ppm,4 (71 - 90%)
same,Growth inhibition rate,[3]; 0.25 ppm,2 (31 - 50%)
same,Growth inhibition rate,[3]; 2.5 ppm,4 (71 - 90%)
same,Growth inhibition rate,[4]; 0.25 ppm,2 (31 - 50%)
same,Growth inhibition rate,[4]; 2.5 ppm,3 (51 - 70%)
same,Growth inhibition rate,[5]; 0.25 ppm,2 (31 - 50%)
same,Growth inhibition rate,[5]; 2.5 ppm,4 (71 - 90%)
same,Growth inhibition rate,[6]; 0.25 ppm,3 (51 - 70%)
same,Growth inhibition rate,[6]; 2.5 ppm,4 (71 - 90%)
same,Growth inhibition rate,[7]; 0.25 ppm,2 (31 - 50%)
same,Growth inhibition rate,[7]; 2.5 ppm,3 (51 - 70%)
same,Herbicidal activity,[8],5 (91 - 100% of total kill)
same,Herbicidal activity,[9],5 (91 - 100% of total kill)
same,Herbicidal activity,[10],2 (31 - 50% of total kill)
same,Herbicidal activity,[11],5 (91 - 100% of total kill)
same,Herbicidal activity,[12],5 (91 - 100% of total kill)
same,Herbicidal activity,[13],5 (91 - 100% of total kill)
same,Herbicidal activity,[14],4 (71 - 90% of total kill)
same,Herbicidal activity,[15],3 (51 - 70% of total kill)
same,Herbicidal activity,[16],5 (91 - 100% of total kill)
same,Herbicidal activity,[17],3 (51 - 70% of total kill)
same,Herbicidal activity,[18],5 (91 - 100% of total kill)
same,Herbicidal activity,[19],5 (91 - 100% of total kill)
same,Herbicidal activity,[20],5 (91 - 100% of total kill)
same,Growth inhibition rate (herbicidal effect),[21]; 5 g/ha post-emergence spray,5 (91 - 100%)
same,Growth inhibition rate (herbicidal effect),[21]; 50 g/ha post-emergence spray,5 (91 - 100%)
same,Growth inhibition rate (phytotoxicity of the crops),[22]; 5 g/ha post-emergence spray,0
same,Growth inhibition rate (phytotoxicity of the crops),[22]; 50 g/ha post-emergence spray,0
